Test results as given in US9988406B2, “Forms of R)-3-(4-(2-(2-methyltetrazol-5-yl)pyridin-5-yl)-3-fluorophenyl)-5-hydroxymethyl oxazolidin-2-one dihydrogen phosphate” (Merck Sharp & Dohme Corp., priority 2009, dated 2018).

Key:
[1] = hygroscopicity / water content of the free acid and salt forms; assay type: physicochemical
[2] = stability of the crystalline free acid and salt forms; assay type: physicochemical

Molecule | hygroscopicity (in words) [1] | water content ([1]; material as prepared) | stability of the crystalline form (in words) [2]
Cn1nnc(-c2ccc(-c3ccc(N4CC(COP(=O)([O-])O)OC4=O)cc3F)cn2)n1.[Na+] (stereo not shown) [mono-sodium salt] | very hygroscopic | over 10 % by weight | 
(R)-3-(4-(2-(2-methyltetrazol-5-yl)pyridin-5-yl)-3-fluorophenyl)-5-hydroxymethyl oxazolidin-2-one dihydrogen phosphate [free acid] | non-hygroscopic |  | very stable at a relatively high temperature
